Measurements reported in patent US20260041683A1, “Compounds with Anti-Acinetobacter Baumannii Activity” (University of Kentucky Research Foundation, priority 2022, published 2026).
Converted amounts (≈) assume the structure as drawn. Where two headings read alike, the source gives them in different places.

How the values were obtained:
[1] = system: murine red blood cells (mRBCs); experiment: Hemolysis assay; format: cell-based; settings: 32 g/mL as printed, 37° C.
Description: The cells were then washed using PBS (3×) by spinning at 1,000 rpm for 7 min. After washing, mRBCs were counted using a hemacytometer and diluted in PBS to 5×10^7 cells/mL. All the tested compounds were diluted (32 μg/mL and 8 μg/mL) in PBS in Eppendorf tubes (500 μL volume) and 100 μL were added to each of the columns of the 96-well plate except for column 1. A positive control (1% Triton-X®, TX), a negative control (DMSO), and wells with no mRBCs to account for any background absorbance were used in the 96-well plate. After the addition of the compounds to the plate, 100 μL of mRBCs were added to each well and plates were incubated at 37° C. for 30 min. The plates were then spun at 1,000 rpm for 10 min till the mRBCs settle at the bottom of the plates. 100 μL of supernatant was then transferred to a new 96-well plate and the absorbance at 500 nm was read using a spectrophotometer (SpectraMax M5). Percent hemolysis was calculated using the following equation after subtraction of the background absorbance.
To test the safety of the compounds, they were for exampled for hemolytic effect on murine red blood cells (FIG. 7).

[2] = system: human embryonic kidney cells (HEK-293); experiment: Mammalian cytotoxicity assay (resazurin); settings: HEK-293, 32 μg/mL (printed 32 g/mL for 3e), 24 h
[3] = system: all 43 strains of A. baumannii (41 CDC strains and 2 ATCC strains); experiment: MIC value statistics for all A. baumannii strains; format: cell-based, Acinetobacter baumannii; settings: of 43 A. baumannii strains
Procedure, shortened: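 Broth microdilution in MH broth against CDC AR Isolate Bank and ATCC strains. Inoculum from overnight MH plates (37 °C), suspended to OD600 ~0.5, then diluted 1:1000 into serial twofold compound dilutions. Sterile and growth controls included per row.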

[4] = system: Ab ATCC BAA1605 (strain J, multidrug-resistant); experiment: MIC determination; format: cell-based; settings: Acinetobacter baumannii
Procedure, shortened: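 Broth double-dilution MIC in Mueller-Hinton broth, 96-well plates, at least in duplicate. Inoculum: colonies grown overnight at 37 °C on MH plates, suspended to OD600 ~0.5 and diluted 1:1000 into serially doubly diluted compound.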

[5] = system: K. pneumoniae ATCC BAA 1705; experiment: MIC determination; format: cell-based; settings: Klebsiella pneumoniae, BAA1705; Table 3
Ab ATCC 19606 (strain I) = experiment: MIC determination (double dilution, Mueller-Hinton broth); format: cell-based, Acinetobacter baumannii; settings: Acinetobacter baumannii, ATCC19606; Table 1; control strain; read-out: MIC Ab ATCC 19606
[6] = system: S. epidermidis ATCC 12228; experiment: MIC determination; format: cell-based; settings: Staphylococcus epidermidis, ATCC12228; Table 4; read-out: MIC S. epidermidis ATCC 12228
S. aureus ATCC 25923 = experiment: MIC determination; format: cell-based; settings: Staphylococcus aureus, ATCC25923; Table 4; read-out: MIC S. Aureus ATCC 25923
M. smegmatis = experiment: MIC determination; format: cell-based, Mycobacterium smegmatis; settings: Mycolicibacterium smegmatis; Table 4
P. aeruginosa ATCC 27853 = experiment: MIC determination; format: cell-based; settings: Pseudomonas aeruginosa, ATCC27853; Table 3; read-out: MIC P. aeruginosa ATCC 27853
Y. pestis CO92 = experiment: microbe, parasite or virus in culture; format: cell-based; settings: Yersinia pestis, CO92, read-out: MIC Y. pestis CO92
S. enterica ATCC 14028 = experiment: MIC determination; format: cell-based; settings: Salmonella enterica, ATCC14028; Table 4; read-out: MIC S. enterica ATCC 14028
E. cloacae ATCC 13047 = experiment: MIC determination; format: cell-based; settings: Enterobacter cloacae, ATCC13047; Table 4; read-out: MIC E. cloacae ATCC 13047
K. pneumoniae ATCC 27736 = experiment: MIC determination; format: cell-based; settings: Klebsiella pneumoniae, ATCC27736; Table 3; read-out: MIC K. pneumoniae ATCC 27736
B. anthracis Sterne F32 = experiment: microbe, parasite or virus in culture; format: cell-based; settings: Bacillus anthracis, STERNEF32, read-out: MIC B. anthracis Sterne F32
E. coli ATCC BAA 2469 = experiment: MIC determination; format: cell-based; settings: Escherichia coli, BAA2469; Table 3
[7] = system: all 41 multidrug-resistant Ab strains (#273-313) from the CDC and FDA AR Bank; experiment: MIC determination, panel statements; format: cell-based; settings: Acinetobacter baumannii; Table 2 note; almost all of the 41 strains; read-out: MIC values against almost all strains
Description: All bacterial strains listed above were stored at −80° C. All strains were streaked on Mueller-Hinton (MH) plates and allowed to grow at 37° C. overnight. Enough colonies were scraped from the plate and suspended in MH broth with vortexing to reach an attenuance at 600 nm (OD600) of ˜0.5. The resulting culture was diluted 1:1000 and added to the prepared serially doubly diluted compound solutions in 96-well plates. For M. smegmatis, a 1:100 dilution of the bacteria was done in MH. All MIC values were determined using 96-well plates with low evaporation seals at least in duplicate. For each row, one well was reserved for sterile control (which consisted of 200 μL of MH medium) and another well was reserved for growth control (which consisted of 100 μL of MH medium seeded with 100 μL of bacterial culture).
Then all 46 compounds were tested against a broad panel of all 41 Ab strains from the CDC and FDA Antibiotic Resistance (AR) Isolate Bank (Table 2; data shown for 2 representative compounds), which were all highly multidrug-resistant strains, including those resistant to colistin. […] The activity of the monohydrazides was not dependent on the extent (number of resistance mutations) or severity (antibiotic MIC) of resistance. All conclusions made from Table 1 remained valid for all compounds against these 41 additional Ab strains. […]

SMILES	hemolysis [1]	inhibition of growth [2]	number of compound/strain combinations with MIC value 0.25 μg/mL [3]	number of compound/strain combinations with MIC value 0.5 μg/mL [3]	number of compound/strain combinations with MIC value 1 μg/mL [3]	MIC ([4]; Table 1, multidrug-resistant strain, read-out: MIC Ab ATCC BAA 1605)	MIC ([4]; Table 3, positive control strain, read-out: MIC A. Baumannii ATCC BAA 1605)	MIC [5]	MIC (Ab ATCC 19606 (strain I))	MIC [6]	MIC (S. aureus ATCC 25923)	MIC (M. smegmatis)	MIC (P. aeruginosa ATCC 27853)	MIC (Y. pestis CO92)	MIC (S. enterica ATCC 14028)	MIC (E. cloacae ATCC 13047)	MIC (K. pneumoniae ATCC 27736)	MIC (B. anthracis Sterne F32)	MIC (E. coli ATCC BAA 2469)	MIC [7]
O=C(NNc1cccc(F)c1)c1ccc2ccccc2n1 [Compound 12a]	20%	40%	8	21	14															
NC[C@H]1O[C@H](O[C@H]2[C@H](O)[C@@H](O[C@H]3O[C@H](CO)[C@@H](O)[C@H](N)[C@H]3O)[C@H](N)C[C@@H]2N)[C@H](O)[C@@H](O)[C@@H]1O [KAN, kanamycin, reference compound]						10 µg/mL (≈ 20.6 µM)	32 µg/mL (≈ 66 µM)	> 128 µg/mL	5 µg/mL (≈ 10.3 µM)	0.63 µg/mL (≈ 1.3 µM)	0.63 µg/mL (≈ 1.3 µM)	≤ 0.03 µg/mL	> 128 µg/mL	2.5 µg/mL (≈ 5.16 µM)	2.5 µg/mL (≈ 5.16 µM)	1.25 µg/mL (≈ 2.58 µM)	4 µg/mL (≈ 8.26 µM)	> 160 µg/mL	> 128 µg/mL	> 10 µg/mL
